Key:
Assay type in all cases: binding
[1] = tested on: AMPKa1 or AMPKa2; experiment: Probe-based (AX9989) kinase profiling in Jurkat lysate: AMPKa1 or AMPKa2
Outline: (§1)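 Compounds were pre-incubated for 15 min at room temperature with gel-filtered Jurkat cell lysate supplemented with 20 mM MnCl2, after which the acyl phosphate ATP probe AX9989 was added at 5 μM final. Labeled active-site peptides were enriched after tryptic digestion and measured by LC/MS, with percent inhibition taken relative to samples without compound.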

[2] = biological target: T1, TAO2 (Homo sapiens, UniProt Q9UL54); experiment: Probe-based (AX9989) kinase profiling in Jurkat lysate: TAO2; settings: read-out: Kinase inhibition % at indicated screening concentration: TAO2; for inhibition at 0.1 µM: screening concentration 0.1 μM; for inhibition at 1 µM: screening concentration 1.0 μM
T1 construct: screened for activity against several kinases in Jurkat cells; endogenous in cells; host or cells: Jurkat cell lysate
T1 sequence (Q9UL54 1-1235): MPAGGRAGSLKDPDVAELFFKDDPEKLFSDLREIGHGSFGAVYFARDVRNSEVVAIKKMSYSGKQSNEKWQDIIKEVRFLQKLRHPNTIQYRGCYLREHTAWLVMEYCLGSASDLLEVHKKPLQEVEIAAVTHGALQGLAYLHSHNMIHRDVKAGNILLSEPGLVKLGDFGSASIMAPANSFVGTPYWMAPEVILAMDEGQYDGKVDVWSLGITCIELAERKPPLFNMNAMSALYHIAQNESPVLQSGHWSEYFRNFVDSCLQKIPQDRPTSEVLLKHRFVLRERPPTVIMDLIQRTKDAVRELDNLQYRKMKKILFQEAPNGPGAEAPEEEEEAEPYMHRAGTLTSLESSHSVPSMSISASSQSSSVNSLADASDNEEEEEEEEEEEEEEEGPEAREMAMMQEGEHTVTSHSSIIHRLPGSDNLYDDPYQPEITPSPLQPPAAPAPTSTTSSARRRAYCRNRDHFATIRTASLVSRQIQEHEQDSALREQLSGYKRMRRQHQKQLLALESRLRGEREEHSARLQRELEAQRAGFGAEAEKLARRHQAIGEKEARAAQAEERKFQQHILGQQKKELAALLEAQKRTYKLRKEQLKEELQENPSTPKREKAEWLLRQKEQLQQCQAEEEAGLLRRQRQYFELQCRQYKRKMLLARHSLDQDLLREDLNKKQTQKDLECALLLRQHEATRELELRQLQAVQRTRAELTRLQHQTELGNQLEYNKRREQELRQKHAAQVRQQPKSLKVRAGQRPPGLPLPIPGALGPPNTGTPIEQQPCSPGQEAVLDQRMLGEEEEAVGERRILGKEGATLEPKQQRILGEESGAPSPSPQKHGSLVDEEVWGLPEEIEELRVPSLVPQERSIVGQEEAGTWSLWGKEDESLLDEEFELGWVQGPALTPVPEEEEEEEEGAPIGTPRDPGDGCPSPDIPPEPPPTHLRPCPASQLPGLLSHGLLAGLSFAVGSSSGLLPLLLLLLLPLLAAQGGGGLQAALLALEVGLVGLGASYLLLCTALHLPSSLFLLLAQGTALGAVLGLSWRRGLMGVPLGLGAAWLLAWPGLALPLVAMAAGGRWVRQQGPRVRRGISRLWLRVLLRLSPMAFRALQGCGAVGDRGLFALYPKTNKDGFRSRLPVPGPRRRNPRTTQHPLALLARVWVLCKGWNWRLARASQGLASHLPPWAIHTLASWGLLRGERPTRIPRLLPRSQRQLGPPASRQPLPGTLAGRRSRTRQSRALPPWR
Outline: as §1

[3] = tested on: ABL or ARG; experiment: Probe-based (AX9989) kinase profiling in Jurkat lysate: ABL or ARG
Outline: as §1

[4] = biological target: T2, BRD4 bromodomain domain I [BRD4(1)] (Homo sapiens, UniProt O60885); experiment: BRD4 bromodomain domain 1 inhibition assay (TR-FRET); settings: screening concentration 10 μM
T2 construct: BRD4 bromodomain domain I [BRD4(1)]; purchased Cayman Chemicals
Outline: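 0.5% DMSO, in triplicate, using Cayman BRD4(1) TR-FRET protocol with slight modification. 670/620 nm ratio normalized to 10 μM JQ1, with DMSO control set as 0% inhibition.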

Compound | Kinase inhibition % at indicated screening concentration: AMPKa1 or AMPKa2 ([1]; screening concentration 0.1 μM) | inhibition at 0.1 µM [2] [%] | Kinase inhibition % at indicated screening concentration: ABL or ARG ([3]; screening concentration 0.1 μM) | inhibition at 10 µM [4] [%] | Kinase inhibition % at indicated screening concentration: AMPKa1 or AMPKa2 ([1]; screening concentration 1.0 μM) | inhibition at 1 µM [2] [%] | Kinase inhibition % at indicated screening concentration: ABL or ARG ([3]; screening concentration 1.0 μM)
COc1cc(C(=O)N2CCC(N(C)C)C2)ccc1Nc1cc2c(cn1)N(C)C(=O)c1ccccc1N2C (centres unmarked) [Compound 70] | E (E is ≦35%) | ≤ 35 | E (E is ≦35%) | 70 to 85 | – | – | –
CCOc1cc(C(=O)N2CCCNCC2)ccc1Nc1cc2c(cn1)N(C)C(=O)c1ccccc1N2C [Compound 71] | – | – | – | > 85 | E (E is ≦35%) | ≤ 35 | E (E is ≦35%)
CCOc1cc(C(=O)N2CCC(F)C2)ccc1Nc1cc2c(cn1)N(C)C(=O)c1occc1N2C (centres unmarked) [Compound 72] | E (E is ≦35%) | ≤ 35 | E (E is ≦35%) | 70 to 85 | – | – | –
COc1cc(NS(C)(=O)=O)ccc1Nc1cc2c(cn1)N(C)C(=O)c1ccccc1N2C [Compound 73] | – | – | – | < 70 | E (E is ≦35%) | ≤ 35 | E (E is ≦35%)
CN1C(=O)c2ccccc2N(C)c2cc(N[C@H]3CC[C@H](N4CCCC4)CC3)ncc21 [Compound 74] | – | – | – | < 70 | E (E is ≦35%) | ≤ 35 | E (E is ≦35%)
CCOc1cc(C(=O)N2CC[C@H](N(C)C)C2)ccc1Nc1cc2c(cn1)N(C)C(=O)c1ccccc1N2C [Compound 75] | – | – | – | > 85 | E (E is ≦35%) | ≤ 35 | E (E is ≦35%)
CCOc1cc(C(=O)NC2CCOCC2)ccc1Nc1cc2c(cn1)N(C)C(=O)c1ccccc1N2C [Compound 80] | – | – | – | < 70 | E (E is ≦35%) | ≤ 35 | E (E is ≦35%)
CCOc1cc(C(=O)N2CCNC[C@H]2C)ccc1Nc1cc2c(cn1)N(C)C(=O)c1ccccc1N2C [Compound 82] | E (E is ≦35%) | ≤ 35 | E (E is ≦35%) | > 85 | – | – | –
CCOc1cc(C(=O)NCCOC)ccc1Nc1cc2c(cn1)N(C)C(=O)c1ccccc1N2C [Compound 83] | – | – | – | < 70 | E (E is ≦35%) | ≤ 35 | E (E is ≦35%)
CCOc1cc(C(=O)NCCn2ccnc2)ccc1Nc1cc2c(cn1)N(C)C(=O)c1ccccc1N2C [Compound 84] | – | – | – | < 70 | E (E is ≦35%) | ≤ 35 | E (E is ≦35%)
CCOc1cc(C(=O)N(C)CCN(C)C)ccc1Nc1cc2c(cn1)N(C)C(=O)c1ccccc1N2C [Compound 88] | E (E is ≦35%) | ≤ 35 | E (E is ≦35%) | > 85 | – | – | –
CCOc1cc(C(=O)N2CCC(N3CCCC3)CC2)ccc1Nc1cc2c(cn1)N(C)C(=O)c1occc1N2C [Compound 91, 6-((2-Ethoxy-4-(4-(pyrrolidin-1-yl)piperidine-1-carbonyl)phenyl)amino)-4,9-dimethyl-4H-furo[3,2-e]pyrido[3,4-b][1,4]diazepin-10(9H)-one] | E (E is ≦35%) | ≤ 35 | E (E is ≦35%) | > 85 | – | – | –
CCOc1cc(C(=O)N2CCCC(O)C2)ccc1Nc1cc2c(cn1)N(C)C(=O)c1ccccc1N2C (centres unmarked) [Compound 93] | – | – | – | > 85 | E (E is ≦35%) | ≤ 35 | E (E is ≦35%)
CCOc1cc(C(=O)N2CCN(C(C)(C)C)CC2)ccc1Nc1cc2c(cn1)N(C)C(=O)c1ccccc1N2C [Compound 94] | E (E is ≦35%) | ≤ 35 | E (E is ≦35%) | 70 to 85 | – | – | –

The next lines start with the values.

Kinase inhibition % at indicated screening concentration: AMPKa1 or AMPKa2 ([1]; screening concentration 0.1 μM) | inhibition at 0.1 µM [2] [%] | Kinase inhibition % at indicated screening concentration: ABL or ARG ([3]; screening concentration 0.1 μM) | inhibition at 10 µM [4] [%] | Kinase inhibition % at indicated screening concentration: AMPKa1 or AMPKa2 ([1]; screening concentration 1.0 μM) | inhibition at 1 µM [2] [%] | Kinase inhibition % at indicated screening concentration: ABL or ARG ([3]; screening concentration 1.0 μM) | Compound
E (E is ≦35%) | ≤ 35 | E (E is ≦35%) | > 85 | – | – | – | CCOc1cc(C(=O)N2CCC[C@H](O)C2)ccc1Nc1cc2c(cn1)N(C)C(=O)c1ccccc1N2C [Compound 96]
– | – | – | 70 to 85 | E (E is ≦35%) | ≤ 35 | E (E is ≦35%) | CCOc1cc(C(=O)N[C@H]2CCCOC2)ccc1Nc1cc2c(cn1)N(C)C(=O)c1ccccc1N2C [Compound 100]
– | – | – | 70 to 85 | E (E is ≦35%) | ≤ 35 | E (E is ≦35%) | CCOc1cc(C(=O)NCCOCCO)ccc1Nc1cc2c(cn1)N(C)C(=O)c1ccccc1N2C [Compound 101]
– | – | – | < 70 | E (E is ≦35%) | ≤ 35 | E (E is ≦35%) | CN1C(=O)c2ccccc2N(C)c2cc(NC3CCOCC3)ncc21 [Compound 102]
E (E is ≦35%) | ≤ 35 | E (E is ≦35%) | 70 to 85 | – | – | – | CCOc1cc(C(=O)NCCN(CC)CC)ccc1Nc1cc2c(cn1)N(C)C(=O)c1ccccc1N2C [Compound 103]
– | – | – | 70 to 85 | E (E is ≦35%) | ≤ 35 | E (E is ≦35%) | CCOc1cc(C(=O)NCCN2CCCC2)ccc1Nc1cc2c(cn1)N(C)C(=O)c1ccccc1N2C [Compound 105]
– | – | – | < 70 | E (E is ≦35%) | 50 to 75 | E (E is ≦35%) | Cc1cc(CN2CCCC2)ccc1Nc1cc2c(cn1)N(C)C(=O)c1ccccc1N2C [Compound 106, 5,11-dimethyl-3-(2-methyl-4-(pyrrolidin-1-ylmethyl)phenylamino)-5H-benzo[e]pyrido[3,4-b][1,4]diazepin-10(11H)-one]
– | – | – | < 70 | E (E is ≦35%) | ≤ 35 | E (E is ≦35%) | CCOc1cc(C(=O)NCCc2ccncc2)ccc1Nc1cc2c(cn1)N(C)C(=O)c1ccccc1N2C [Compound 107]
– | – | – | 70 to 85 | E (E is ≦35%) | ≤ 35 | E (E is ≦35%) | CCOc1cc(C(=O)N2CCN(CC)CC2)ccc1Nc1cc2c(cn1)N(C)C(=O)c1ccccc1N2C [Compound 108]

Reference: US20170008888A1 (KYORIN PHARMACEUTICAL CO., LTD., priority 2014, published 2017)
